# Molecular target: T1, human H-PGDS (Homo sapiens, UniProt O60760)
# T1 construct: Full length human H-PGDS cDNA (Invitrogen Ultimate ORF IOH13026) was amplified by PCR; 6-His (N); TEV protease cleavage site (N); made in house; host or cells: E. coli BL21 (DE3*) for H-PGDS; Sf9 insect cells (baculovirus) for COX-2
# Assay: H-PGDS RapidFire high throughput mass spectrometry assay
# Format: biochemical
# Conditions: inhibition of conversion of PGH2 to PGD2 by H-PGDS; mean pIC50; read-out: Potency Range (mean pIC50) (converted)
# Summary of the method: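 Full-length His-tagged human H-PGDS from E. coli converted PGH2, generated in situ (~10 μM burst) from arachidonic acid by FLAG-tagged human COX-2 (Sf9-expressed). PGD2 and PGF2α (substrate surrogate) were measured by RapidFire SPE-triple quadrupole MS. Percent conversion was calculated, and inhibition was taken as reduced conversion.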
# T1 sequence (O60760 whole entry): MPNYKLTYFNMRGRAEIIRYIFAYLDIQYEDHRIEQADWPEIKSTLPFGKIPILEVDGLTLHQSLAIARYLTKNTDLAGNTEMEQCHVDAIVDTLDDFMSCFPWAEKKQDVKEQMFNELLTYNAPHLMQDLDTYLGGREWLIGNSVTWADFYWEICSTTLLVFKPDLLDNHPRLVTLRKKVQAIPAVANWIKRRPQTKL
row,Structure (SMILES),IC50 [µM]
1,"O=C(N[C@H]1C(=O)N[C@@H]2CCC[C@@H]21)c1cnc(-c2cc(F)cc(Cl)c2)s1 [Example 50, 2-(3-Chloro-5-fluorophenyl)-N-((3R,3aS,6aR)-2-oxooctahydrocyclopenta[b]pyrrol-3-yl)thiazole-5-carboxamide]",0.102 to 1
2,"O=C(N[C@@H]1C(=O)N[C@H]2CCC[C@H]21)c1cnc(-c2cc(F)cc(Cl)c2)s1 [Example 51, 2-(3-Chloro-5-fluorophenyl)-N-((3S,3aR,6aS)-2-oxooctahydrocyclopenta[b]pyrrol-3-yl)thiazole-5-carboxamide]",0.00102 to 0.01
3,"O=C(N[C@@H]1C(=O)N[C@H]2COC[C@H]21)c1cnc(-c2cc(F)cc(Cl)c2)s1 [Example 53, 2-(3-Chloro-5-fluorophenyl)-N-((3S,3aR,6aR)-2-oxohexahydro-1H-furo[3,4-b]pyrrol-3-yl)thiazole-5-carboxamide]",0.0102 to 0.1
4,"O=C(N[C@H]1C(=O)N[C@@H]2COC[C@@H]21)c1cnc(-c2cc(F)cc(Cl)c2)s1 [Example 54, 2-(3-Chloro-5-fluorophenyl)-N-((3R,3aS,6aS)-2-oxohexahydro-1H-furo[3,4-b]pyrrol-3-yl)thiazole-5-carboxamide]",0.0102 to 0.1
5,"O=C(N[C@@H]1CC2(COC2)NC1=O)c1cnc(-c2cc(F)cc(Cl)c2)s1 [Example 56, (R)-2-(3-Chloro-5-fluorophenyl)-N-(6-oxo-2-oxa-5-azaspiro[3.4]octan-7-yl)thiazole-5-carboxamide]",0.102 to 1
6,"O=C(N[C@H]1CC2(COC2)NC1=O)c1cnc(-c2cc(F)cc(Cl)c2)s1 [Example 57, (S)-2-(3-Chloro-5-fluorophenyl)-N-(6-oxo-2-oxa-5-azaspiro[3.4]octan-7-yl)thiazole-5-carboxamide]",0.00102 to 0.01
7,"O=C(N[C@H]1C(=O)N[C@H]2CCC[C@H]21)c1cnc(-c2cc(F)cc(Cl)c2)s1 [Example 59, 2-(3-Chloro-5-fluorophenyl)-N-((3R,3aR,6aS)-2-oxooctahydrocyclopenta[b]pyrrol-3-yl)thiazole-5-carboxamide]",0.102 to 1
8,"O=C(N[C@@H]1C(=O)N[C@@H]2CCC[C@H]12)c1cnc(-c2cc(F)cc(Cl)c2)s1 [Example 60, 2-(3-Chloro-5-fluorophenyl)-N-((3S,3aS,6aR)-2-oxooctahydrocyclopenta[b]pyrrol-3-yl)thiazole-5-carboxamide]",0.0102 to 0.1
9,"C[C@@H]1C[C@@H](NC(=O)c2cnc(-c3cc(F)cc(Cl)c3)s2)C(=O)N1 [Example 61, 2-(3-Chloro-5-fluorophenyl)-N-((3R,5R)-5-methyl-2-oxopyrrolidin-3-yl)thiazole-5-carboxamide]",0.102 to 1
10,"C[C@@H]1C[C@H](NC(=O)c2cnc(-c3cc(F)cc(Cl)c3)s2)C(=O)N1 [Example 62, 2-(3-Chloro-5-fluorophenyl)-N-((3S,5R)-5-methyl-2-oxopyrrolidin-3-yl)thiazole-5-carboxamide]",0.0102 to 0.1
11,"CN1CC[C@H](NC(=O)c2cnc(-c3cc(F)cc(Cl)c3)s2)C1=O [Example 64, (S)-2-(3-Chloro-5-fluorophenyl)-N-(1-methyl-2-oxopyrrolidin-3-yl)thiazole-5-carboxamide]",0.0102 to 0.1
12,"CN(C(=O)c1cnc(-c2cc(F)cc(Cl)c2)s1)[C@H]1CCNC1=O [Example 66, (S)-2-(3-Chloro-5-fluorophenyl)-N-methyl-N-(2-oxopyrrolidin-3-yl)thiazole-5-carboxamide]",1.02 to 10
13,"CN(C(=O)c1cnc(-c2cc(F)cc(Cl)c2)s1)[C@@H]1CCNC1=O [Example 67, (R)-2-(3-Chloro-5-fluorophenyl)-N-methyl-N-(2-oxopyrrolidin-3-yl)thiazole-5-carboxamide]",> 10
14,"COc1cccc(-c2ncc(C(=O)N[C@H]3CCNC3=O)s2)c1 [Example 68, (S)-2-(3-Methoxyphenyl)-N-(2-oxopyrrolidin-3-yl)thiazole-5-carboxamide]",0.0102 to 0.1
15,"O=C(N[C@H]1CCNC1=O)c1cnc(-c2cccc(O)c2)s1 [Example 69, (S)-2-(3-Hydroxyphenyl)-N-(2-oxopyrrolidin-3-yl)thiazole-5-carboxamide]",0.0102 to 0.1
16,"C[C@]1(NC(=O)c2cnc(-c3cc(F)cc(Cl)c3)s2)CCNC1=O [Example 72, (S)-2-(3-Chloro-5-fluorophenyl)-N-(3-methyl-2-oxopyrrolidin-3-yl)thiazole-5-carboxamide]",0.0102 to 0.1
17,"C[C@@]1(NC(=O)c2cnc(-c3cc(F)cc(Cl)c3)s2)CCNC1=O [Example 73, (R)-2-(3-Chloro-5-fluorophenyl)-N-(3-methyl-2-oxopyrrolidin-3-yl)thiazole-5-carboxamide]",0.102 to 1
18,"C[C@H]1CNC(=O)[C@H]1NC(=O)c1cnc(-c2cc(F)cc(Cl)c2)s1 [Example 75, 2-(3-Chloro-5-fluorophenyl)-N-((3S,4S)-4-methyl-2-oxopyrrolidin-3-yl)thiazole-5-carboxamide]",0.0102 to 0.1
19,"C[C@@H]1CNC(=O)[C@@H]1NC(=O)c1cnc(-c2cc(F)cc(Cl)c2)s1 [Example 76, 2-(3-Chloro-5-fluorophenyl)-N-((3R,4R)-4-methyl-2-oxopyrrolidin-3-yl)thiazole-5-carboxamide]",1.02 to 10
20,"O=C(N[C@H]1CCNC1=S)c1cnc(-c2cc(F)cc(Cl)c2)s1 [Example 77, (S)-2-(3-Chloro-5-fluorophenyl)-N-(2-thioxopyrrolidin-3-yl)thiazole-5-carboxamide]",0.00102 to 0.01
21,"O=C(N[C@H]1CCNC1=[Se])c1cnc(-c2cc(F)cc(Cl)c2)s1 [Example 78, (S)-2-(3-chloro-5-fluorophenyl)-N-(2-selenoxopyrrolidin-3-yl)thiazole-5-carboxamide]",0.00102 to 0.01
22,"O=C(NN1CCNC1=O)c1cnc(-c2cc(F)cc(Cl)c2)s1 [Example 79, 2-(3-Chloro-5-fluorophenyl)-N-(2-oxoimidazolidin-1-yl)thiazole-5-carboxamide]",0.0102 to 0.1
23,"O=C1NCC[C@@H]1NC(=S)c1cnc(-c2cc(F)cc(Cl)c2)s1 [Example 80, (S)-2-(3-chloro-5-fluorophenyl)-N-(2-oxopyrrolidin-3-yl)thiazole-5-carbothioamide]",0.00102 to 0.01
24,"C[C@H]1C[C@H](NC(=O)c2cnc(-c3cc(F)cc(Cl)c3)s2)C(=O)N1 [Example 81, 2-(3-Chloro-5-fluorophenyl)-N-((3S,5S)-5-methyl-2-oxopyrrolidin-3-yl)thiazole-5-carboxamide]",0.00102 to 0.01
25,"CC1(C)C[C@@H](NC(=O)c2cnc(-c3cc(F)cc(Cl)c3)s2)C(=S)N1 [Example 84, (R)-2-(3-Chloro-5-fluorophenyl)-N-(5,5-dimethyl-2-thioxopyrrolidin-3-yl)thiazole-5-carboxamide]",0.102 to 1
26,"CC1(C)C[C@H](NC(=O)c2cnc(-c3cc(F)cc(Cl)c3)s2)C(=S)N1 [Example 85, (S)-2-(3-Chloro-5-fluorophenyl)-N-(5,5-dimethyl-2-thioxopyrrolidin-3-yl)thiazole-5-carboxamide]",0.00102 to 0.01
27,"O=C1NCC[C@@H]1NS(=O)(=O)c1cnc(-c2ccccc2)s1 [Example 86, (S)-N-(2-Oxopyrrolidin-3-yl)-2-phenylthiazole-5-sulfonamide]",> 10
